Species on record: Rattus norvegicus
Experiment: DrugMatrix - Regimen: Daily Repeat
Format: toxicity, organism-based, Sprague-Dawley
Set-up: regimen Daily Repeat, gender Male, age 6-8 weeks
Conditions: in vivo, po, route oral GAVAGE, vehicle .5 % CMC; for ABSOLUTE BASOPHIL / ABSOLUTE EOSINOPHIL / ABSOLUTE LYMPHOCYTE / ABSOLUTE MONOCYTE / ABSOLUTE SEGMENTED NEUTROPHIL / BASOPHIL / EOSINOPHIL / ERYTHROCYTE COUNT / HEMATOCRIT / HEMOGLOBIN / LEUKOCYTE COUNT / LYMPHOCYTE / MEAN CORPUSCULAR HEMOGLOBIN / MEAN CORPUSCULAR HEMOGLOBIN CONCENTRATION / MEAN CORPUSCULAR VOLUME / MONOCYTE / NEUTROPHIL / NUCLEATED RED BLOOD CELLS / PLATELET COUNT: tissue Blood; for ALANINE AMINOTRANSFERASE / ALBUMIN / ALKALINE PHOSPHATASE / ASPARTATE AMINOTRANSFERASE / BLOOD UREA NITROGEN / CARBON DIOXIDE / CHLORIDE / CHOLESTEROL / CREATINE PHOSPHOKINASE / CREATININE / GLUCOSE / LACTATE DEHYDROGENASE / LIPASE / PHOSPHORUS / POTASSIUM / SODIUM / TOTAL BILIRUBIN / TOTAL PROTEIN / URIC ACID: tissue Plasma
[1] = 50 mg/kg, 72 h, dose level Low, time 3 day
[2] = 50 mg/kg, 120 h, dose level Low, time 5 day
[3] = 1500 mg/kg, 72 h, dose level High, time 3 day
[4] = 1500 mg/kg, 120 h, dose level High, time 5 day

CC[C@H]1OC(=O)[C@H](C)[C@@H](O[C@H]2C[C@@](C)(OC)[C@@H](O)[C@H](C)O2)[C@H](C)[C@@H](O[C@@H]2O[C@H](C)C[C@H](N(C)C)[C@H]2O)[C@](C)(O)C[C@@H](C)C(=O)[C@H](C)[C@@H](O)[C@]1(C)O [ERYTHROMYCIN]
ABSOLUTE BASOPHIL [1]: 0 CELLS/uL
ABSOLUTE EOSINOPHIL [1]: 38.33 CELLS/uL
ABSOLUTE LYMPHOCYTE [1]: 15941.33 CELLS/uL
ABSOLUTE MONOCYTE [1]: 389.67 CELLS/uL
ABSOLUTE SEGMENTED NEUTROPHIL [1]: 1297.33 CELLS/uL
BASOPHIL [1]: 0%
EOSINOPHIL [1]: 0.33%
ERYTHROCYTE COUNT [1]: 5.45 x10E6/uL
HEMATOCRIT [1]: 34.13%
HEMOGLOBIN [1]: 13.53 G/DL
LEUKOCYTE COUNT [1]: 17.67 x10E3/uL
LYMPHOCYTE [1]: 89.67%
MEAN CORPUSCULAR HEMOGLOBIN [1]: 24.9 pg
MEAN CORPUSCULAR HEMOGLOBIN CONCENTRATION [1]: 39.67 G/DL
MEAN CORPUSCULAR VOLUME [1]: 62.7 fL
MONOCYTE [1]: 2%
NEUTROPHIL [1]: 8%
NUCLEATED RED BLOOD CELLS [1]: 0 /100WBC
PLATELET COUNT [1]: 1119.67 x10E3/uL
ALANINE AMINOTRANSFERASE [1]: 49.33 u/L
ALBUMIN [1]: 4.3 G/DL
ALKALINE PHOSPHATASE [1]: 366 u/L
ASPARTATE AMINOTRANSFERASE [1]: 81 u/L
BLOOD UREA NITROGEN [1]: 14.67 mg/dL
CARBON DIOXIDE [1]: 28.33 mmol/L
CHLORIDE [1]: 99.33 MEQ/L
CHOLESTEROL [1]: 80 mg/dL
CREATINE PHOSPHOKINASE [1]: 238.67 u/L
CREATININE [1]: 0.19 mg/dL
GLUCOSE [1]: 154 mg/dL
LACTATE DEHYDROGENASE [1]: 152.67 u/L
LIPASE [1]: 9 u/L
PHOSPHORUS [1]: 12 mg/dL
POTASSIUM [1]: 6.83 MEQ/L
SODIUM [1]: 143.9 MEQ/L
TOTAL BILIRUBIN [1]: 0.27 mg/dL
TOTAL PROTEIN [1]: 6 G/DL
URIC ACID [1]: 1.57 mg/dL
ABSOLUTE BASOPHIL [2]: 0 CELLS/uL
ABSOLUTE EOSINOPHIL [2]: 0 CELLS/uL
ABSOLUTE LYMPHOCYTE [2]: 13393.67 CELLS/uL
ABSOLUTE MONOCYTE [2]: 52.33 CELLS/uL
ABSOLUTE SEGMENTED NEUTROPHIL [2]: 520.67 CELLS/uL
BASOPHIL [2]: 0%
EOSINOPHIL [2]: 0%
ERYTHROCYTE COUNT [2]: 4.88 x10E6/uL
HEMATOCRIT [2]: 31.9%
HEMOGLOBIN [2]: 12.4 G/DL
LEUKOCYTE COUNT [2]: 13.97 x10E3/uL
LYMPHOCYTE [2]: 96%
MEAN CORPUSCULAR HEMOGLOBIN [2]: 25.47 pg
MEAN CORPUSCULAR HEMOGLOBIN CONCENTRATION [2]: 38.87 G/DL
MEAN CORPUSCULAR VOLUME [2]: 65.47 fL
MONOCYTE [2]: 0.33%
NEUTROPHIL [2]: 3.67%
NUCLEATED RED BLOOD CELLS [2]: 1 /100WBC
PLATELET COUNT [2]: 1227.33 x10E3/uL
ALANINE AMINOTRANSFERASE [2]: 45 u/L
ALBUMIN [2]: 4.23 G/DL
ALKALINE PHOSPHATASE [2]: 454.67 u/L
ASPARTATE AMINOTRANSFERASE [2]: 86.33 u/L
BLOOD UREA NITROGEN [2]: 15.33 mg/dL
CARBON DIOXIDE [2]: 25.67 mmol/L
CHLORIDE [2]: 104 MEQ/L
CHOLESTEROL [2]: 39 mg/dL
CREATINE PHOSPHOKINASE [2]: 315.67 u/L
CREATININE [2]: 0.19 mg/dL
GLUCOSE [2]: 170 mg/dL
LACTATE DEHYDROGENASE [2]: 199 u/L
LIPASE [2]: 7.67 u/L
PHOSPHORUS [2]: 10.83 mg/dL
POTASSIUM [2]: 6.66 MEQ/L
SODIUM [2]: 143.43 MEQ/L
TOTAL BILIRUBIN [2]: 0.27 mg/dL
TOTAL PROTEIN [2]: 6.13 G/DL
URIC ACID [2]: 1.5 mg/dL
ABSOLUTE BASOPHIL [3]: 0 CELLS/uL
ABSOLUTE EOSINOPHIL [3]: 0 CELLS/uL
ABSOLUTE LYMPHOCYTE [3]: 15179 CELLS/uL
ABSOLUTE MONOCYTE [3]: 91.33 CELLS/uL
ABSOLUTE SEGMENTED NEUTROPHIL [3]: 1229.67 CELLS/uL
BASOPHIL [3]: 0%
EOSINOPHIL [3]: 0%
ERYTHROCYTE COUNT [3]: 6.59 x10E6/uL
HEMATOCRIT [3]: 42.83%
HEMOGLOBIN [3]: 16.43 G/DL
LEUKOCYTE COUNT [3]: 16.5 x10E3/uL
LYMPHOCYTE [3]: 91%
MEAN CORPUSCULAR HEMOGLOBIN [3]: 24.97 pg
MEAN CORPUSCULAR HEMOGLOBIN CONCENTRATION [3]: 38.43 G/DL
MEAN CORPUSCULAR VOLUME [3]: 64.9 fL
MONOCYTE [3]: 0.67%
NEUTROPHIL [3]: 8.33%
NUCLEATED RED BLOOD CELLS [3]: 0 /100WBC
PLATELET COUNT [3]: 1070 x10E3/uL
ALANINE AMINOTRANSFERASE [3]: 65.33 u/L
ALBUMIN [3]: 4.03 G/DL
ALKALINE PHOSPHATASE [3]: 390 u/L
ASPARTATE AMINOTRANSFERASE [3]: 86.33 u/L
BLOOD UREA NITROGEN [3]: 9.33 mg/dL
CARBON DIOXIDE [3]: 34 mmol/L
CHLORIDE [3]: 100 MEQ/L
CHOLESTEROL [3]: 106.33 mg/dL
CREATINE PHOSPHOKINASE [3]: 328 u/L
CREATININE [3]: 0.16 mg/dL
GLUCOSE [3]: 137.67 mg/dL
LACTATE DEHYDROGENASE [3]: 131 u/L
LIPASE [3]: 9 u/L
PHOSPHORUS [3]: 12.3 mg/dL
POTASSIUM [3]: 6.72 MEQ/L
SODIUM [3]: 144.47 MEQ/L
TOTAL BILIRUBIN [3]: 0.1 mg/dL
TOTAL PROTEIN [3]: 6.17 G/DL
URIC ACID [3]: 2.13 mg/dL
ABSOLUTE BASOPHIL [4]: 0 CELLS/uL
ABSOLUTE EOSINOPHIL [4]: 0 CELLS/uL
ABSOLUTE LYMPHOCYTE [4]: 14587.33 CELLS/uL
ABSOLUTE MONOCYTE [4]: 796.67 CELLS/uL
ABSOLUTE SEGMENTED NEUTROPHIL [4]: 1949.33 CELLS/uL
BASOPHIL [4]: 0%
EOSINOPHIL [4]: 0%
ERYTHROCYTE COUNT [4]: 6.53 x10E6/uL
HEMATOCRIT [4]: 39.67%
HEMOGLOBIN [4]: 15.9 G/DL
LEUKOCYTE COUNT [4]: 17.33 x10E3/uL
LYMPHOCYTE [4]: 84.67%
MEAN CORPUSCULAR HEMOGLOBIN [4]: 24.4 pg
MEAN CORPUSCULAR HEMOGLOBIN CONCENTRATION [4]: 40.13 G/DL
MEAN CORPUSCULAR VOLUME [4]: 60.83 fL
MONOCYTE [4]: 4.33%
NEUTROPHIL [4]: 11%
NUCLEATED RED BLOOD CELLS [4]: 0 /100WBC
PLATELET COUNT [4]: 1382.33 x10E3/uL
ALANINE AMINOTRANSFERASE [4]: 67 u/L
ALBUMIN [4]: 3.7 G/DL
ALKALINE PHOSPHATASE [4]: 311.67 u/L
ASPARTATE AMINOTRANSFERASE [4]: 107.33 u/L
BLOOD UREA NITROGEN [4]: 13.67 mg/dL
CARBON DIOXIDE [4]: 29 mmol/L
CHLORIDE [4]: 100 MEQ/L
CHOLESTEROL [4]: 107.67 mg/dL
CREATINE PHOSPHOKINASE [4]: 532.67 u/L
CREATININE [4]: 0.21 mg/dL
GLUCOSE [4]: 130.33 mg/dL
LACTATE DEHYDROGENASE [4]: 259.67 u/L
LIPASE [4]: 9.33 u/L
PHOSPHORUS [4]: 9.97 mg/dL
POTASSIUM [4]: 9.14 MEQ/L
SODIUM [4]: 141.8 MEQ/L
TOTAL BILIRUBIN [4]: 0.1 mg/dL
TOTAL PROTEIN [4]: 6.13 G/DL
URIC ACID [4]: 1.27 mg/dL
